Laboratory results reported in ChEMBL document CHEMBL6114939, “Identification of Dual Inhibitors Targeting Main Protease (Mpro) and Cathepsin L as Potential Anti-SARS-CoV-2 Agents” (ACS Med Chem Lett, 2024).

Columns and labels:
[1] = tested on: Severe acute respiratory syndrome coronavirus 2; assay: Inhibition of N-terminal sumo/his-6 tagged SARS CoV-2 MPro (3264 to 3569 residues) extracted from Escherichia coli BL21 Gold (DE3) cells assessed as residual activity using Dabcyl-KTSAVLQSGFRKMEE-dans as substrate at 1 uM incubated for 10 mins by FRET assay relative to control
[2] = Binding affinity to N-terminal sumo/his-6 tagged SARS CoV-2 MPro (3264 to 3569 residues) extracted from Escherichia coli BL21 Gold (DE3) cells assessed as inhibition constant using Dabcyl-KTSAVLQSGFRKMEE-dans as substrate incubated for 10 mins by FRET assay; set-up: species or system Severe acute respiratory syndrome coronavirus 2
Procathepsin L [3] = target: T1, Procathepsin L (Homo sapiens, UniProt P07711); assay: Inhibition of human Cathepsin L assessed as residual activity using Cbz-FR-AMC as substrate at 1 uM preincubated for 20 mins at room temperature followed by substrate addition and measured after 10 mins by FRET assay; details: time 30.0 min
Target sequence in this assay (P07711 114-333 limits assumed): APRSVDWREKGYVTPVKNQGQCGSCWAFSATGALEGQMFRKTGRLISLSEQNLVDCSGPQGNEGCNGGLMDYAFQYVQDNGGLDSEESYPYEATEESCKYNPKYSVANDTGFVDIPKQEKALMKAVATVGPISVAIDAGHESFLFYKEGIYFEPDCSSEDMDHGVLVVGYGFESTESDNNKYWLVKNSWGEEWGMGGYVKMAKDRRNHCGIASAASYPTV

Procathepsin L [4] = target: T1, Procathepsin L; assay: Binding affinity to human Cathepsin L assessed as inhibition constant using Cbz-FR-AMC as substrate preincubated for 20 mins at room temperature followed by substrate addition measured after 10 mins by FRET assay
Target sequence in this assay (P07711 whole entry): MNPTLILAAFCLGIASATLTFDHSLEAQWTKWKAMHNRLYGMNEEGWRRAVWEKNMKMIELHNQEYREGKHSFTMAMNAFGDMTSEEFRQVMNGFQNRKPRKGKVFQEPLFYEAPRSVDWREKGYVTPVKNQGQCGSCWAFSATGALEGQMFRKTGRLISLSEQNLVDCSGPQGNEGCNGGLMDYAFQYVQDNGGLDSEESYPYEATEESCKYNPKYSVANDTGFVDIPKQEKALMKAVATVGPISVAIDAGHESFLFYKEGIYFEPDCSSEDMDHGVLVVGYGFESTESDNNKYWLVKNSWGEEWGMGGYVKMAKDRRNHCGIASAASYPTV

Huh-7 = assay: Cytotoxicity against human Huh-7 cells overexpressing human ACE2 incubated for 24 hrs by MTT assay; assay type: functional
Cathepsin S = Cathepsin S (Homo sapiens, UniProt P25774); assay: Binding affinity to human Cathepsin S assessed as inhibition constant using Cbz-VVR-AMC as substrate preincubated for 20 mins at room temperature followed by substrate addition and measured after 10 mins by FRET assay
Sequence of Cathepsin S (P25774 whole entry): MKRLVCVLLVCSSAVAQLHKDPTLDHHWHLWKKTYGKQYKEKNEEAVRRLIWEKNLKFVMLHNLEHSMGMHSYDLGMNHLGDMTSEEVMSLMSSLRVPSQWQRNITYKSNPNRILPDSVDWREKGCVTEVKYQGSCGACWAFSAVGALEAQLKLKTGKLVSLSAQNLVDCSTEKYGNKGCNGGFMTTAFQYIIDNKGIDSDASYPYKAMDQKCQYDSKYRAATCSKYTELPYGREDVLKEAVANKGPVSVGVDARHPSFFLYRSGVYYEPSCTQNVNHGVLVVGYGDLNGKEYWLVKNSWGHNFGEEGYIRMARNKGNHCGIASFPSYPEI

Cathepsin B = Cathepsin B (Homo sapiens, UniProt P07858); assay: Binding affinity to human Cathepsin B assessed as inhibition constant using Cbz-FR-AMC as substrate preincubated for 20 mins at room temperature followed by substrate addition and measured after 10 mins by FRET assay

Row | Compound | Activity [1] [%] | Ki [2] [nM] | Activity (Procathepsin L [3]) [%] | Ki (Procathepsin L [4]) [nM] | CC50 (Huh-7) [nM] | Ki (Cathepsin S) [nM] | Ki (Cathepsin B) [nM]
1 | CC(=O)/C=C/[C@H](C[C@@H]1CCNC1=O)NC(=O)[C@H](CC1CCCCC1)NC(=O)c1ccc(F)cc1 | 68.2 | 3140 | 5 | 17 | 46900 |  | 
2 | CC(=O)/C=C/[C@H](C[C@@H]1CCNC1=O)NC(=O)[C@H](CC(C)(C)C)NC(=O)c1ccc(F)cc1 | 68.8 | 5540 | 45.1 | 701 | > 100000 | 0.7 | 7700
3 | CCC[C@H](NC(=O)c1ccccc1F)C(=O)N[C@H](/C=C/C(C)=O)C[C@@H]1CCNC1=O | 101 |  | 12 |  |  |  | 
4 | CCCC[C@H](NC(=O)c1ccccc1F)C(=O)N[C@H](/C=C/C(C)=O)C[C@@H]1CCNC1=O | 98.7 |  | 8.66 |  |  |  | 
5 | CC(=O)/C=C/[C@H](C[C@@H]1CCNC1=O)NC(=O)[C@H](CC1CC1)NC(=O)c1ccc(F)cc1 | 83.7 |  | 26.8 |  |  |  | 
6 | CC(=O)/C=C/[C@H](C[C@@H]1CCNC1=O)NC(=O)[C@H](CC1CC1)NC(=O)c1ccccc1F | 57.9 | 2950 | 23.2 | 294 | > 100000 | 95.4 | 
7 | CC(=O)/C=C/[C@H](C[C@@H]1CCNC1=O)NC(=O)[C@H](CC1CCCCC1)NC(=O)c1ccccc1F | 56.3 | 1610 | 3.4 | 12 | 12600 |  | 
8 | CCCC[C@H](NC(=O)c1ccc(F)cc1)C(=O)N[C@H](/C=C/C(C)=O)C[C@@H]1CCNC1=O | 58.8 | 10700 | 15.2 | 141 | > 100000 |  | 
9 | CCOC(=O)/C=C/[C@H](C[C@@H]1CCNC1=O)NC(=O)[C@H](Cc1ccccc1)NC(=O)[C@@H](Cc1ccc(F)cc1)NC(=O)OC(C)(C)C |  | 1800 |  | 145 |  |  | 
10 | CC(=O)/C=C/[C@H](C[C@@H]1CCNC1=O)NC(=O)[C@H](CC(C)C)NC(=O)c1ccccc1F | 88.7 |  | 5.3 |  |  |  | 
11 | CC(=O)/C=C/[C@H](C[C@@H]1CCNC1=O)NC(=O)[C@H](CC(C)(C)C)NC(=O)c1cccc(F)c1 | 77 |  | 34.7 |  |  |  | 
12 | CCC[C@H](NC(=O)c1cccc(F)c1)C(=O)N[C@H](/C=C/C(C)=O)C[C@@H]1CCNC1=O | 101 |  | 8.61 |  |  |  | 
13 | CCC[C@H](NC(=O)c1ccc(F)cc1)C(=O)N[C@H](/C=C/C(C)=O)C[C@@H]1CCNC1=O | 96.5 |  | 19.1 |  |  |  | 
14 | CC(=O)/C=C/[C@H](C[C@@H]1CCNC1=O)NC(=O)[C@H](CC1CCCCC1)NC(=O)c1cccc(F)c1 | 64.2 | 3660 | 3.6 | 4 | 22600 |  | 
15 | CCCC[C@H](NC(=O)c1cccc(F)c1)C(=O)N[C@H](/C=C/C(C)=O)C[C@@H]1CCNC1=O | 86 |  | 6.81 |  |  |  | 
16 | CC(=O)/C=C/[C@H](C[C@@H]1CCNC1=O)NC(=O)[C@H](CC(C)C)NC(=O)c1ccc(F)cc1 | 64.9 | 5580 | 5.8 | 20 | > 100000 | 6.23 | 10900
17 | CC(=O)/C=C/[C@H](C[C@@H]1CCNC1=O)NC(=O)[C@H](CC(C)C)NC(=O)c1cccc(F)c1 | 99.5 |  | 10.9 |  |  |  | 
18 | CC(=O)/C=C/[C@H](C[C@@H]1CCNC1=O)NC(=O)[C@H](CC1CC1)NC(=O)c1cccc(F)c1 | 92.7 |  | 9.76 |  |  |  | 
19 | CC(=O)/C=C/[C@H](C[C@@H]1CCNC1=O)NC(=O)[C@H](CC(C)(C)C)NC(=O)c1ccccc1F | 89.4 |  | 33.5 |  |  |  | 
